Source: ChEMBL document CHEMBL1121876, “gamma-Aminobutyric acid agonists, antagonists, and uptake inhibitors. Design and therapeutic aspects” (J Med Chem, 1981)

Key:
[1] = target: GABA-A receptor; anion channel; experiment: Activation of binding of [3H]diazepam to Gamma-aminobutyric acid receptor; format: protein-complex assay
[2] = target: GABA-A receptor; anion channel; experiment: In vitro inhibition of [3H]GABA binding to Gamma-aminobutyric acid receptor of human astrocytes
[3] = target: GABA-A receptor; anion channel; experiment: In vitro inhibition of [3H]P4S binding to Gamma-aminobutyric acid receptor of human astrocytes
[4] = target: GABA-A receptor; anion channel; experiment: In vitro inhibition of [3H]-THIP binding to Gamma-aminobutyric acid receptor of human astrocytes
[5] = target: GABA-A receptor; anion channel; experiment: In vitro inhibition of [3H]isoguvacine binding to Gamma-aminobutyric acid receptor of human astrocytes
[6] = target: GABA-A receptor; anion channel; experiment: In vitro inhibition of [3H]muscimol binding to Gamma-aminobutyric acid receptor of human astrocytes
[7] = Inhibition of glial GABA uptake; format: functional
[8] = Inhibition of neuronal GABA uptake; format: functional

Row | Compound | EC50 [1] [µM] | IC50 [2] [µM] | IC50 [3] [µM] | IC50 [4] [µM] | IC50 [5] [µM] | IC50 [6] [µM] | IC50 [7] [µM] | IC50 [8] [µM]
1 | C[C@H](N)/C=C/C(=O)O | 390 | 4.1 | 21 | 2.6 | 2.5 | 3.5 | > 5000 | > 5000
2 | C[C@@H](N)c1cc(O)no1 | 2300 | 19 | 83 | 9.5 | 8.2 | 8.9 | > 1000 | > 1000
3 | C[C@H](N)c1cc(O)no1 | 230 | 0.64 | 5.8 | 0.74 | 1.6 | 0.51 | > 1000 | > 1000

Continued, values first:

Row | EC50 [1] [µM] | IC50 [2] [µM] | IC50 [3] [µM] | IC50 [4] [µM] | IC50 [5] [µM] | IC50 [6] [µM] | IC50 [7] [µM] | IC50 [8] [µM] | Compound
4 | > 2000 | 148 | 670 | 88 | 84 | 145 | 500 | 160 | C[C@@H](N)/C=C/C(=O)O
5 | 550 | 4.7 | 24 | 2.9 | 5.2 | 2.5 | 1000 | 750 | C[C@H](N)CCC(=O)O
6 | 410 | 5 | 21 | 2.5 | 6.1 | 4.3 | 120 | 200 | C[C@@H](N)CCC(=O)O
